# Experimental data: PMC10830420, “Structures, functions and adaptations of the human LINE-1 ORF2 protein” (Nature, 2023)
# Where two headings read alike, the source gives them in different places.
# Experiments:
# [1] = tested on: L1 retrotransposition reporter in HeLa cells; experiment: LINE-1 dual luciferase retrotransposition assay in HeLa cells; assay type: cell-based, human; details: for IC50: HeLa cells, stable dual luciferase L1 reporter, normalized to cell viability, n = 3 wells
# [2] = target: T1, ORF2p core (Homo sapiens, UniProt O00370); experiment: Homogeneous time-resolved fluorescence (HTRF) ORF2p RT assay; assay type: biochemical
# T1 construct: His6-MBP-3C-ORF2p (238-1061, ORFeus-Hs) in pET41; His6-MBP (3C protease site) (N, cleaved yes); made in house; host or cells: E. coli
# Method: (§1) ORF2p core was preincubated with a template:primer containing a single site for the incorporation of a given nucleotide analogue. The primer/template sequence shown in the panel a illustrates the case of single incorporation of 3TC, with a single G for incorporation; the incoming template sequence for entecavir and carbovir has a single C, and for d4T a single A, each at position labeled “N”. Reactions were incubated for one minute at 37 °C with a 100 nM dNTP mixture and increasing concentrations of listed inhibitors. IC50 index, fold = IC50 (drug, µM) ÷ [dNTP] […] Fluorescein-labeled dNTPs (here, uracil-TP) are incorporated by ORF2p into a biotinylated primer, here shown against a poly(A) template. Detection is then achieved using FRET with a terbium cryptate labeled streptavidin, and the time-resolved technique and time-delayed emission from terbium cryptate reduces background from other fluorescent chemicals in the mix. In the presence of ORF2p RT inhibitors (RTIs), base incorporation is stopped and FRET signal is lost. […]
# (§2) ORF2p reverse transcriptase activity assays […]
# For HTRF RT assays157, 25 nM ORF2p core and 12. 5 nM t em plat e: primer was incubated at 25°C for 60 minutes
# with 10 nM of fluorescein- 12- dUTP (Thermo), 1 µM each (dATP,dCTP,dGTP), and test compound in a 15 µL
# reaction with buffer containing 50 mM Tris-HCl, 50 mM KCl, 10 mM MgCl2, 10 mM DTT, pH 8.1, and 1% final
# [3] = target: T1, ORF2p core; experiment: Gel-based L1 RT assay, ORF2p core, inhibition by NRTI triphosphates; assay type: biochemical; details: 100 nM dNTP mixture; for IC50: NTP forms of NRTIs, one minute at 37 °C
# Method: as §1, §2
# Gel-based RT activity assays consisted of pr e-incubating RTs with annealed DNA/RNA, DNA/DNA, or RNA/RNA 5’- end- radiolabeled or 5’-end-Cy5- o r FAM-labeled template:primer duplex or hybrid duplex and, where indicated, inhibitor in the presence of 0.1- 1 μ M dNTP or NTP mixture, 0.25 mM EDTA, 50 mM NaCl, and 25 mM Tris (pH 8) for 10 min at 37°C. Labeled nucleic acids were purchased from Dharmacon or IDT. Unless otherwise indicated, 15 μL reactions were initiated by the addition of 1.3 mM MgCl2, incubated for 10 min at 37 °C, and then stopped by the addition of 15 μL of formamide/EDTA (25 mM) mixture and incubated at 95 °C for 10 min. 3 μL reaction samples were subjected to denaturing 8 M urea 20% PAGE to resolve products followed by signal quantification (ImageQuant 5.2, GE Healthcare Bio- Sciences) through phosphorimaging (Amersham Typhoon 5, Cytivia). Scanned gel images are […]
# minor products; original images are provided in an Extended Data file. […]
# [4] = tested on: interferon production in THP1 cells; experiment: Interferon reporter assay in THP1 cells (secreted luciferase); assay type: cell-based, human
# Method: Culture Collection ( AT CC); THP1-Dual and THP1- Dual KO-TREX1 cells were from InvivoGen. All cell lines were maintained at 37 °C and 5% CO2 and validated and tested for mycoplasma. All plasmids and affinity reagents are described in Supplementary Tables 4-5 , respectively and available from Addgene at https://www.addgene.org/browse/article/28243724/. […]
# Interferon reporter assay in THP1 cells
# The type I interferon response was evaluated using THP1 -Dual and THP1-Dual KO-TREX1 cells (InvivoGen), which secrete a Lucia luciferase reporter gene under control of an interferon- responsive promoter. THP1-Dual KO-TREX1 cell were generated by stable biallelic knock-out of the TREX1 gene. Cell were treated with a dose titration of test compound in the presence of 1 µM 5- aza-2ʹ-deoxycytidine (decitabine, Sigma, #189825), which de- represses LINE-1121. Type 1 Interferon and cell viability were assessed after five days of treatment. QUANTI-LUC solution containing stabilizer was added to the cell supernatant and luminescence was measured on a p la t e reader, and cells were assessed for cell viability using CellTiter-Glo (Promega, #G9683) according to the manufacturer’s instructions.
# LINE-1 dual luciferase retrotransposition assay
# To assess the potency of inhibiting LINE-1 retrotransposon, a stable clonal dual luciferase L1 reporter cell line was generated and reported as described130,133 in the HeLa Tet-On 3G cell line (Takara, ). SB100x161 was used to integrate pRT006.2, a vector similar to pYX056 130 , which contains a bi-directional Tet-On promoter expressing both control Renilla luciferase and LINE-1 ORFeus-Hs Firefly luciferase antisense intron (AI) r epor t er 79,162. A single cell clone was selected with the highest doxycycline-induced luciferase signal vs baseline. Cells were mixed with compounds and induced for reporter expression with 500 ng/mL doxycycline (Sigma, #D9891) for 72 hours. Luminescence was measured using the Dual-Glo Luciferase Assay System (Promega, #E2940) following the manufacturer’s instructions, and the ratio of Firefly to Renilla Luciferase activity was used to measure […]
# Telomerase activity assay
# The human telomerase assay was performed with telomerase in MCF- 7 cell lysates using the Telo TAGGG Telomerase PCR ELISAplus kit (Roche). Test compounds (NTPs) were serially diluted in water, mixed with 0.2 µg of M CF- 7 lysate, and pre- incubated at room temperature for 15 minutes. Then the reaction was carried out for 30 minutes, amplified using PCR, and visualized colorimetrically per t he manufacturer’s instructions.
# Cells were lysed in ice cold RIPA buffer containing 1x protease inhibitor tablet (Thermo), centrifuged for 10 minutes, and clarified lysates were quantified by BCA assay. […]
# [5] = target: T2, human telomerase RT (TERT) (Homo sapiens, UniProt O14746); experiment: Telomerase activity assay in MCF-7 cell lysate; assay type: biochemical; details: NRTI triphosphates
# T2 construct: of human telomerase RT (TERT) by NRTI triphosphates in a biochemical assay in MCF-7 cell lysate; endogenous in cells; host or cells: MCF-7 cell lysate
# [6] = HTRF, NRTIs as triphosphates, n = 3 wells
# T2 sequence (O14746 whole entry): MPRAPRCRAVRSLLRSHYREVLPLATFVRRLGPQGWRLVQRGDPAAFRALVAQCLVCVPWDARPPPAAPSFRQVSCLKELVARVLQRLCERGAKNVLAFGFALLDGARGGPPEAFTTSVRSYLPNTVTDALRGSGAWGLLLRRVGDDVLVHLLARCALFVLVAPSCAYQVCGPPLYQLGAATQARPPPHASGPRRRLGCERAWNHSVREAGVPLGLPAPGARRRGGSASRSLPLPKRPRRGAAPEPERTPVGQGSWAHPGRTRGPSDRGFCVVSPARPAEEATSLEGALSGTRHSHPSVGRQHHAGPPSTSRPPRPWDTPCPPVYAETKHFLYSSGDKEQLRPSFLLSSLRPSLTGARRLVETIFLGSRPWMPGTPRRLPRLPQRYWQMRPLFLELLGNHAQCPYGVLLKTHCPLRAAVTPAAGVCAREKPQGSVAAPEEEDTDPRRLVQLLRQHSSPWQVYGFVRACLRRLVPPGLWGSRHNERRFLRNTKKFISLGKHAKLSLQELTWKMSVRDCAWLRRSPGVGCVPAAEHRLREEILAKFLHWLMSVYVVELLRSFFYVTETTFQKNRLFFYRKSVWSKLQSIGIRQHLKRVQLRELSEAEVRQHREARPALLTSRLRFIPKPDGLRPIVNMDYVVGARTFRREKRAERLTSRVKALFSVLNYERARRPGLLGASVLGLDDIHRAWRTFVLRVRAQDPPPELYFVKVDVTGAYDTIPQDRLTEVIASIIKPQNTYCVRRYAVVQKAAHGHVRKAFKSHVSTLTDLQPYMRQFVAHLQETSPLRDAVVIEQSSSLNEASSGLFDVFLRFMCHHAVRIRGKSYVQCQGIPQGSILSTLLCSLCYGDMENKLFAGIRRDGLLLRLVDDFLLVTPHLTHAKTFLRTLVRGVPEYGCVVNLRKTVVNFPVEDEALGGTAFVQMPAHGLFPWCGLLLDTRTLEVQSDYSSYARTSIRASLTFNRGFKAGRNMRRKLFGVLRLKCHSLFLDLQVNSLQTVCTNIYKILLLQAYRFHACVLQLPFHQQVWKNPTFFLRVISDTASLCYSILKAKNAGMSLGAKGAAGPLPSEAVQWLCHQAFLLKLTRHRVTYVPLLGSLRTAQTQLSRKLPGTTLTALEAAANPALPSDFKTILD
smiles,measurement,setting,value
"Cc1cn([C@H]2C[C@H](N=[N+]=[N-])[C@@H](CO)O2)c(=O)[nH]c1=O [AZT, zidovudine]",IC50,[1]; read-out: IC50,1.8 µM
same,fold change in ORF2p inhibitory activity compared with ddTTP and d4T,[2],greater than 20 fold
same,IC50,"[2]; HTRF, NRTI NTPs",0.2 to 0.75 µM
"Nc1nc2c(ncn2[C@H]2C=C[C@@H](CO)C2)c(=O)[nH]1 [Carbovir, carbovir]","IC50 index, fold = IC50 (drug, µM) ÷ [dNTP] (natural counterpart, 0.1 µM)",[3],64 fold
same,IC50,[3],5 to 7 µM
"CC(C)Nc1cccnc1N1CCN(C(=O)c2cc3cc(NS(C)(=O)=O)ccc3[nH]2)CC1 [Delavirdine, delavirdine]",IC50,[2]; [6],> 30 µM
"O=C1Nc2ccc(Cl)cc2[C@@](C#CC2CC2)(C(F)(F)F)O1 [Efavirenz, efavirenz]",IC50,[2]; [6],> 30 µM
"C=C1[C@H](CO)[C@@H](O)C[C@@H]1n1cnc2c(=O)[nH]c(N)nc21 [Entecavir, entecavir]","IC50 index, fold = IC50 (drug, µM) ÷ [dNTP] (natural counterpart, 0.1 µM)",[3],5.4 fold
same,IC50,[3],0.4 to 0.6 µM
"Cc1cc(C#N)cc(C)c1Oc1nc(Nc2ccc(C#N)cc2)nc(N)c1Br [Etravirine, etravirine]",IC50,[2]; [6],> 30 µM
"Nc1nc(=O)n([C@@H]2CS[C@H](CO)O2)cc1F [FTC, emtricitabine]",IC50,"[1]; Homo sapiens, HeLa",1.1 µM
"O=C(O)P(=O)(O)O [Foscarnet, foscarnet]",IC50,[2]; [6],> 100 µM
"Cc1ccnc2c1NC(=O)c1cccnc1N2C1CC1 [Nevirapine, nevirapine]",IC50,[1]; read-out: IC50,> 30 µM
same,inhibition of ORF2p,"[2]; HTRF, 1 mM",no inhibition
same,IC50,[2]; [6],> 1000 µM
"Cc1cn(C2C=CC(COP(=O)(OCOC(=O)OC(C)C)OCOC(=O)OC(C)C)O2)c(=O)[nH]c1=O (stereo not shown) [POC d4T, d4T bis(isopropoxycarbonyloxymethyl)phosphate]",baseline and decitabine-induced IFN production,"[4]; 10 µM, THP1 cells, 1 µM decitabine",reduced IFN further
same,fold more potent than d4T in suppressing interferon secretion,"[4]; TREX1 knockout THP1 cells, 5 days, 1 µM decitabine",approximately 30 fold
"Cc1cc(/C=C/C#N)cc(C)c1Nc1ccnc(Nc2ccc(C#N)cc2)n1 [Rilpivirine, rilpivirine]",IC50,[2]; [6],> 30 µM
"CC(C)OC(=O)[C@H](C)N[P@](=O)(OC[C@H]1O[C@@H](n2ccc(=O)[nH]c2=O)[C@](C)(F)[C@@H]1O)Oc1ccccc1 [Sofosbuvir, sofosbuvir]",inhibition in cell-based L1 assays,[1],no inhibition
same,IC50,"[1]; Homo sapiens, HeLa",> 100 µM
"C[C@H](Cn1cnc2c(N)ncnc21)OCP(=O)(O)O [Tenofovir, tenofovir]",IC50,"[1]; Homo sapiens, read-out: IC50",3.2 µM
Cc1cn([C@H]2C=C[C@@H](COP(=O)(O)OP(=O)(O)OP(=O)(O)O)O2)c(=O)[nH]c1=O [d4T-TP],IC50,"[2]; HTRF, NRTI NTPs",0.009 µM
same,IC50,[5],15 µM
"Cc1cn([C@H]2CC[C@@H](CO)O2)c(=O)[nH]c1=O [ddT, dideoxythymidine]",IC50,"[2]; HTRF, NRTI NTPs",< 0.01 µM
"Nc1ncn([C@H]2C[C@H](O)[C@@H](CO)O2)c(=O)n1 [decitabine, 5-aza-2ʹ-deoxycytidine]",interferon (IFN) production,"[4]; 1 µM, THP1 monocytes",increased
